{"source": "patent US20100298141A1", "about": "“SUBSTITUTED PYRIDINE N-OXIDE HERBICIDES” (E. I. DU PONT DE NEMOURS AND COMPANY, priority 2007, published 2010)", "key": {"velvetleaf": {"system": "velvetleaf", "test": "Test C pre-/postemergence test", "type": "in vivo, Abutilon theophrasti", "summary_of_the_method": "(§1)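 Seeds were planted and treated preemergence with test chemical in a non-phytotoxic solvent mixture containing surfactant. Postemergence applications of the same formulation went onto plants 2 to 18 cm tall (1- to 4-leaf stage). A dash marks no test result.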"}, "barnyardgrass": {"system": "barnyardgrass", "test": "Test C flooded paddy test", "type": "in vivo, Echinochloa crus-galli", "details": "Flood", "summary_of_the_method": "(§2)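 Under a constant 3 cm flood, test compounds went directly into the paddy water. Following 13 to 15 days of greenhouse growth, treated species and controls were compared by eye.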"}, "redroot pigweed": {"system": "redroot pigweed", "test": "Test A pre-/postemergence greenhouse test", "type": "in vivo, Amaranthus retroflexus", "details": "for Plant response rating, Pigweed: 0 to 100 scale where 0 is no effect and 100 is complete control; for Pigweed plant response rating: 0 to 100 scale", "summary_of_the_method": "(§3)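 Sowing in loam/sand; same-day pre (directed soil spray) and post (foliar, 1–2 leaf, 2–10 cm) treatment with surfactant-containing non-phytotoxic solvent formulation; ~10 days in greenhouse; eye-scored injury against untreated plants.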"}, "duck salad": {"system": "duck salad", "test": "Test C flooded paddy test", "type": "in vivo, Heteranthera limosa", "details": "Flood", "summary_of_the_method": "as §2"}, "crabgrass": {"system": "crabgrass", "test": "Test C pre-/postemergence test", "type": "in vivo, Digitaria sanguinalis", "summary_of_the_method": "as §1"}, "wild oat": {"system": "wild oat", "test": "Test C pre-/postemergence test", "type": "in vivo, Avena fatua", "summary_of_the_method": "as §1"}, "wheat": {"system": "wheat", "test": "Test C pre-/postemergence test", "type": "in vivo, Triticum aestivum", "summary_of_the_method": "as §1"}, "[1]": {"system": "common (oilseed) sunflower", "test": "Test C pre-/postemergence test", "type": "in vivo, Helianthus annuus", "summary_of_the_method": "as §1"}, "bermudagrass": {"system": "bermudagrass", "test": "Test C pre-/postemergence test", "type": "in vivo, Cynodon dactylon", "summary_of_the_method": "as §1"}, "corn": {"system": "corn", "test": "Test A pre-/postemergence greenhouse test", "type": "in vivo, Zea mays", "details": "for Plant response rating, Corn: 0 to 100 scale where 0 is no effect and 100 is complete control; for Corn plant response rating: 0 to 100 scale", "summary_of_the_method": "as §3"}, "catchweed bedstraw": {"system": "catchweed bedstraw", "test": "Test C pre-/postemergence test", "type": "in vivo, Galium aparine", "summary_of_the_method": "as §1"}, "eastern black nightshade": {"system": "eastern black nightshade", "test": "Test C pre-/postemergence test", "type": "in vivo, Solanum ptycanthum", "summary_of_the_method": "as §1"}, "Surinam grass": {"system": "Surinam grass", "test": "Test C pre-/postemergence test", "type": "in vivo, Brachiaria decumbens", "summary_of_the_method": "as §1"}, "kochia": {"system": "kochia", "test": "Test C pre-/postemergence test", "type": "in vivo, Kochia scoparia", "summary_of_the_method": "as §1"}, "blackgrass": {"system": "blackgrass", "test": "Test C pre-/postemergence test", "type": "in vivo, Alopecurus myosuroides", "summary_of_the_method": "as §1"}, "rice": {"system": "rice", "test": "Test C flooded paddy test", "type": "in vivo, Oryza sativa", "details": "Flood", "summary_of_the_method": "as §2"}, "pigweed": {"system": "pigweed", "test": "Test C pre-/postemergence test", "type": "in vivo, Amaranthus retroflexus", "summary_of_the_method": "as §1"}, "[2]": {"details": "62 g ai/ha, Preemergence, scale 0 to 100"}, "[3]": {"details": "125 g ai/ha, preemergence, scale 0 (no effect) to 100 (complete control)"}, "[4]": {"details": "Preemergence, 31 g ai/ha, scale 0 to 100 (0 no effect, 100 complete control)"}, "[5]": {"details": "preemergence, 250 g ai/ha, scale 0 (no effect) to 100 (complete control)"}, "[6]": {"details": "62 g ai/ha, scale 0 to 100 (0 no effect, 100 complete control)"}, "[7]": {"details": "250 g ai/ha, scale 0 to 100, 0 no effect, 100 complete control, 13 to 15 days"}, "[8]": {"details": "Postemergence, 500 g ai/ha, 0 is no effect, 100 is complete control"}, "[9]": {"details": "Preemergence, 125 g ai/ha, 0 no effect, 100 complete control"}}, "data": [{"compound": "C#CCOc1c(C[S+]([O-])c2cccc[n+]2[O-])c(C(F)(F)F)nn1C", "note": "(centres unmarked) [Compound 76]", "values": [{"measurement": "Velvetleaf plant response rating", "setting": "velvetleaf; [2]", "value": 100}, {"measurement": "Velvetleaf plant response rating", "setting": "velvetleaf; [3]", "value": 100}, {"measurement": "Plant response rating, Velvetleaf", "setting": "velvetleaf; [4]", "value": 0}, {"measurement": "Velvetleaf plant response rating", "setting": "velvetleaf; [5]", "value": 100}, {"measurement": "Plant response rating, Barnyardgrass", "setting": "barnyardgrass; [6]", "value": 0}, {"measurement": "Plant response rating, Barnyardgrass", "setting": "barnyardgrass; [7]", "value": 20}, {"measurement": "Plant response rating, Pigweed", "setting": "redroot pigweed; Postemergence, 125 g ai/ha", "value": 50}, {"measurement": "Pigweed plant response rating", "setting": "redroot pigweed; [8]", "value": 80}, {"measurement": "Pigweed plant response rating", "setting": "redroot pigweed; [9]", "value": 70}, {"measurement": "Plant response rating, Pigweed", "setting": "redroot pigweed; Preemergence, 500 g ai/ha", "value": 100}, {"measurement": "Plant response rating, Ducksalad", "setting": "duck salad; [6]", "value": 0}, {"measurement": "Plant response rating, Ducksalad", "setting": "duck salad; [7]", "value": 100}, {"measurement": "Crabgrass, Large plant response rating", "setting": "crabgrass; [2]", "value": 85}, {"measurement": "Crabgrass, Large plant response rating", "setting": "crabgrass; [3]", "value": 98}, {"measurement": "Plant response rating, Crabgrass, Large", "setting": "crabgrass; [4]", "value": 85}, {"measurement": "Crabgrass, Large plant response rating", "setting": "crabgrass; [5]", "value": 100}, {"measurement": "Oat, Wild plant response rating", "setting": "wild oat; [2]", "value": 50}, {"measurement": "Oat, Wild plant response rating", "setting": "wild oat; [3]", "value": 60}, {"measurement": "Plant response rating, Oat, Wild", "setting": "wild oat; [4]", "value": 0}, {"measurement": "Oat, Wild plant response rating", "setting": "wild oat; [5]", "value": 95}, {"measurement": "Wheat plant response rating", "setting": "wheat; [2]", "value": 60}, {"measurement": "Wheat plant response rating", "setting": "wheat; [3]", "value": 98}, {"measurement": "Plant response rating, Wheat", "setting": "wheat; [4]", "value": 0}, {"measurement": "Wheat plant response rating", "setting": "wheat; [5]", "value": 100}, {"measurement": "Sunflower plant response rating", "setting": "[1]; [2]", "value": 35}, {"measurement": "Sunflower plant response rating", "setting": "[1]; [3]", "value": 50}, {"measurement": "Plant response rating, Sunflower", "setting": "[1]; [4]", "value": 0}, {"measurement": "Sunflower plant response rating", "setting": "[1]; [5]", "value": 70}, {"measurement": "Bermudagrass plant response rating", "setting": "bermudagrass; 62 g ai/ha, Preemergence, scale 0 to 100 (0 no effect, 100 complete control)", "value": 100}, {"measurement": "Bermudagrass plant response rating", "setting": "bermudagrass; [3]", "value": 100}, {"measurement": "Plant response rating, Bermudagrass", "setting": "bermudagrass; [4]", "value": 80}, {"measurement": "Bermudagrass plant response rating", "setting": "bermudagrass; [5]", "value": 100}, {"measurement": "Plant response rating, Corn", "setting": "corn; Postemergence, 125 g ai/ha", "value": 40}, {"measurement": "Corn plant response rating", "setting": "corn; [8]", "value": 60}, {"measurement": "Corn plant response rating", "setting": "corn; [9]", "value": 0}, {"measurement": "Plant response rating, Corn", "setting": "corn; Preemergence, 500 g ai/ha", "value": 80}, {"measurement": "Galium plant response rating", "setting": "catchweed bedstraw; [2]", "value": 100}, {"measurement": "Galium plant response rating", "setting": "catchweed bedstraw; [3]", "value": 100}, {"measurement": "Plant response rating, Galium", "setting": "catchweed bedstraw; [4]", "value": 100}, {"measurement": "Galium plant response rating", "setting": "catchweed bedstraw; [5]", "value": 100}, {"measurement": "Nightshade plant response rating", "setting": "eastern black nightshade; [2]", "value": 85}, {"measurement": "Nightshade plant response rating", "setting": "eastern black nightshade; [3]", "value": 90}, {"measurement": "Plant response rating, Nightshade", "setting": "eastern black nightshade; [4]", "value": 85}, {"measurement": "Nightshade plant response rating", "setting": "eastern black nightshade; [5]", "value": 100}, {"measurement": "Surinam Grass plant response rating", "setting": "Surinam grass; [2]", "value": 85}, {"measurement": "Surinam Grass plant response rating", "setting": "Surinam grass; [3]", "value": 85}, {"measurement": "Plant response rating, Surinam Grass", "setting": "Surinam grass; [4]", "value": 0}, {"measurement": "Surinam Grass plant response rating", "setting": "Surinam grass; [5]", "value": 100}, {"measurement": "Kochia plant response rating", "setting": "kochia; [2]", "value": 100}, {"measurement": "Kochia plant response rating", "setting": "kochia; [3]", "value": 100}, {"measurement": "Plant response rating, Kochia", "setting": "kochia; [4]", "value": 70}, {"measurement": "Kochia plant response rating", "setting": "kochia; [5]", "value": 100}, {"measurement": "Blackgrass plant response rating", "setting": "blackgrass; [2]", "value": 100}, {"measurement": "Blackgrass plant response rating", "setting": "blackgrass; [3]", "value": 100}, {"measurement": "Plant response rating, Blackgrass", "setting": "blackgrass; [4]", "value": 0}, {"measurement": "Blackgrass plant response rating", "setting": "blackgrass; [5]", "value": 100}, {"measurement": "Plant response rating, Rice", "setting": "rice; [6]", "value": 0}, {"measurement": "Plant response rating, Rice", "setting": "rice; [7]", "value": 30}, {"measurement": "Pigweed plant response rating", "setting": "pigweed; [2]", "value": 80}, {"measurement": "Pigweed plant response rating", "setting": "pigweed; [3]", "value": 80}, {"measurement": "Plant response rating, Pigweed", "setting": "pigweed; [4]", "value": 50}, {"measurement": "Pigweed plant response rating", "setting": "pigweed; [5]", "value": 100}]}]}
